Experimental data as given in ChEMBL document CHEMBL3091387, “DPMA, a deoxypodophyllotoxin derivative, induces apoptosis and anti-angiogenesis in non-small cell lung cancer A549 cells” (Bioorg Med Chem Lett, 2013).
Activity calls are given as the source filed them. No cut-off for these calls is given here.

What was measured:
[1] = tested on: A549; experiment: Upregulation of cyclin B1 protein expression in human A549 cells by Western blot analysis; assay type: functional, cell-based; conditions: TDE = time-dependent effect
[2] = tested on: A549; experiment: Induction of apoptosis in human A549 cells assessed as nuclear fragmentation dispersed throughout cytoplasm at 1 uM after 36 hrs by DAPI staining-based indirect immunofluorescence assay; assay type: functional, cell-based
[3] = tested on: A549; experiment: Downregulation of phosphorylated cdc-2 protein expression in human A549 cells by Western blot analysis; assay type: functional, cell-based; conditions: TDE = time-dependent effect
[4] = tested on: A549; experiment: Induction of apoptosis in human A549 cells after 48 hrs by Hoechst 33258 staining-based phase contrast microscopic analysis; assay type: functional, cell-based
[5] = tested on: A549; experiment: Induction of apoptosis in human A549 cells assessed as cell shrinkage at 1 uM after 36 hrs by DAPI staining-based indirect immunofluorescence assay; assay type: functional
[6] = tested on: A549; experiment: Induction of apoptosis in human A549 cells assessed as increase in apoptotic cells after 24 hrs by annexin V-FITC/propidium iodide staining-based flow cytometric analysis; assay type: functional, cell-based
[7] = tested on: A549; experiment: Induction of apoptosis in human A549 cells assessed as early apoptotic cells at 5 uM after 24 hrs by annexin V-FITC/propidium iodide staining-based flow cytometric analysis (reference value: 0.18%); assay type: functional
[8] = target: Tubulin (Homo sapiens) (UniProt P68371+Q9H4B7+P0DPH7+P68366+Q13509+Q71U36+P04350+Q3ZCM7+P07437+P68363+Q9BQE3+Q6PEY2+Q13885+Q9BVA1+Q9BUF5); experiment: Binding affinity to tubulin in human A549 cells assessed as inhibition of microtubule network formation at 1 uM after 12 to 36 hrs by indirect immunofluorescence assay; assay type: cell-based
[9] = tested on: A549; experiment: Induction of apoptosis in human A549 cells assessed as dead cells at 5 uM after 24 hrs by annexin V-FITC/propidium iodide staining-based flow cytometric analysis (reference value: 0.69%); assay type: functional
[10] = tested on: A549; experiment: Induction of apoptosis in human A549 cells at 0.5 to 1 uM by Hoechst 33258 staining-based phase contrast microscopic analysis; assay type: functional, cell-based; conditions: TDE = time-dependent effect
[11] = Cytotoxicity activity human MSC assessed as cell viability at 0.01 to 1 uM after 48 hrs by MTT assay
[12] = tested on: A549; experiment: Induction of apoptosis in human A549 cells assessed as inhibition of Bcl-2 protein expression at 1 uM after 24 hrs by immunofluorescence assay; assay type: functional, cell-based
[13] = tested on: A549; experiment: Induction of apoptosis in human A549 cells assessed as nuclear condensation dispersed throughout cytoplasm at 1 uM after 36 hrs by DAPI staining-based indirect immunofluorescence assay; assay type: functional, cell-based
[14] = tested on: A549; experiment: Induction of ROS generation in human A549 cells after 24 hrs by DCFH-DA dye-based laser confocal microscopic analysis; assay type: functional, cell-based
[15] = tested on: A549; experiment: Induction of apoptosis in human A549 cells assessed as late apoptotic cells at 0.5 uM after 24 hrs by annexin V-FITC/propidium iodide staining-based flow cytometric analysis (reference value: 0.65%); assay type: functional
[16] = tested on: A549; experiment: Induction of apoptosis in human A549 cells assessed as late apoptotic cells at 5 uM after 24 hrs by annexin V-FITC/propidium iodide staining-based flow cytometric analysis (reference value: 0.65%); assay type: functional
[17] = tested on: A549; experiment: Induction of apoptosis in human A549 cells assessed as increase in cleaved caspase-3 protein expression at 1 uM after 24 hrs by immunofluorescence assay; assay type: functional, cell-based
[18] = tested on: A549; experiment: Cytotoxicity against human A549 cells assessed as cell viability at 0.2 to 1 uM by MTT assay; assay type: functional, cell-based; conditions: TDE = time-dependent effect
[19] = tested on: A549; experiment: Induction of apoptosis in human A549 cells assessed as early apoptotic cells at 0.5 uM after 24 hrs by annexin V-FITC/propidium iodide staining-based flow cytometric analysis (reference value: 0.18%); assay type: functional
[20] = tested on: A549; experiment: Induction of apoptosis in human A549 cells assessed as early apoptotic cells at 1 uM after 24 hrs by annexin V-FITC/propidium iodide staining-based flow cytometric analysis (reference value: 0.18%); assay type: functional
[21] = tested on: A549; experiment: Induction of apoptosis in human A549 cells assessed as nuclear condensation at 0.5 to 1 uM after 48 hrs by Hoechst 33258 staining-based phase contrast microscopic analysis; assay type: functional, cell-based
[22] = tested on: HUVEC; experiment: Antiangiogenic activity in HUVEC assessed as inhibition of VEGF-induced tube formation at 0.5 to 1 uM after 12 hrs by phase contrast inverted microscopic analysis; assay type: functional, cell-based; conditions: Homo sapiens
[23] = tested on: A549; experiment: Upregulation of p53 protein expression in human A549 cells by Western blot analysis; assay type: functional, cell-based; conditions: TDE = time-dependent effect
[24] = tested on: A549; experiment: Induction of apoptosis in human A549 cells assessed as nuclear fragmentation at 0.5 to 1 uM after 48 hrs by Hoechst 33258 staining-based phase contrast microscopic analysis; assay type: functional, cell-based
[25] = tested on: A549; experiment: Induction of apoptosis in human A549 cells assessed as dead cells at 0.5 uM after 24 hrs by annexin V-FITC/propidium iodide staining-based flow cytometric analysis (reference value: 0.69%); assay type: functional
[26] = tested on: A549; experiment: Induction of apoptosis in human A549 cells assessed as late apoptotic cells at 1 uM after 24 hrs by annexin V-FITC/propidium iodide staining-based flow cytometric analysis (reference value: 0.65%); assay type: functional
[27] = tested on: A549; experiment: Induction of apoptosis in human A549 cells assessed as cell shrinkage at 0.5 to 1 uM after 48 hrs by Hoechst 33258 staining-based phase contrast microscopic analysis; assay type: functional
[28] = tested on: A549; experiment: Cytotoxicity against human A549 cells assessed as cell viability after 48 hrs by MTT assay; assay type: functional, cell-based
[29] = tested on: A549; experiment: Induction of apoptosis in human A549 cells at 0.5 to 5 uM by annexin V-FITC/propidium iodide staining-based flow cytometric analysis; assay type: functional, cell-based; conditions: TDE = time-dependent effect
[30] = tested on: A549; experiment: Induction of apoptosis in human A549 cells assessed as dead cells at 1 uM after 24 hrs by annexin V-FITC/propidium iodide staining-based flow cytometric analysis (reference value: 0.69%); assay type: functional
[31] = tested on: A549; experiment: Upregulation of cdc-2 protein expression in human A549 cells by Western blot analysis; assay type: functional, cell-based; conditions: TDE = time-dependent effect
[32] = tested on: A549; experiment: Induction of apoptosis in human A549 cells assessed as increase in Bax protein expression at 1 uM after 24 hrs by immunofluorescence assay; assay type: functional, cell-based

With `COc1cc([C@@H]2c3cc4c(cc3C[C@H]3COC(=O)[C@@H]32)OCO4)cc(OC)c1OC(=O)N[C@H](CCSC)C(N)=O` the Activity [1] was “tde”, the Activity [2] was “Active” and the Activity [3] was “tde”. For the same compound, the Activity [4] was “Dose-dependent effect”, the Activity [5] was “Active” and the Activity [6] was “Dose-dependent effect”. The Activity [7] was 18.41%, the inhibition [8] was “Active” and the Activity [9] was 23.43%. For the same compound, the Activity [10] was “tde”, the Activity [11] was “Non-toxic” and the inhibition [12] was “Active”. The Activity [13] was “Active”, the Activity [14] was “Dose-dependent effect” and the Activity [15] was 6.11%. The Activity [16] was 27.54%, the Activity [17] was “Active” and the Activity [18] was “tde”. The Activity [19] was 6.22%, the Activity [20] was 9.28% and the Activity [21] was “Active”. The inhibition [22] was “Active”, the Activity [23] was “tde” and the Activity [24] was “Active”. For the same compound, the Activity [25] was 2.76%, the Activity [26] was 13.83% and the Activity [27] was “Active”. For the same compound, the Activity [28] was “Dose-dependent effect”, the Activity [29] was “tde” and the Activity [30] was 15.73%. The Activity [31] was “tde” and the Activity [32] was “Active”.
